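Where inhibition never reached the appropriate level, the endpoint shown equals the highest concentration tested. Otherwise, values were interpolated linearly from a five-concentration, 48-hour dose response in 96-well plates. TGI: total growth inhibition.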
Assays:
Assay in all cases: NCI tumour cell line growth inhibition, 48 h
[1] = system: UACC-257 melanoma
[2] = system: UACC-62 melanoma
[3] = system: TK-10 renal
[4] = system: RPMI-8226 leukemia
[5] = system: MOLT-4 leukemia
[6] = system: NCI-H522 lung
[7] = system: CCRF-CEM leukemia
[8] = system: SK-OV-3 ovarian
[9] = system: RXF 393 renal
[10] = system: SF-268 CNS
[11] = system: CAKI-1 renal
[12] = system: SK-MEL-5 melanoma
[13] = system: OVCAR-3 ovarian
[14] = system: SF-539 CNS
[15] = system: M19-MEL melanoma
[16] = system: K-562 leukemia
[17] = system: SNB-78 CNS
[18] = system: COLO 205 colon
[19] = system: NCI-H226 lung
[20] = system: A549 NSCLC
[21] = system: DLD-1 colon
[22] = system: LOX IMVI melanoma
[23] = system: SN12C renal
[24] = system: SK-MEL-2 melanoma
[25] = system: SF-295 CNS
[26] = system: EKVX NSCLC
[27] = system: 786-0 renal
[28] = system: HOP-62 NSCLC
[29] = system: RXF-631 renal
[30] = system: SW-620 colon
[31] = system: SNB-75 CNS
[32] = system: XF 498 CNS
[33] = system: KM12 colon
[34] = system: OVCAR-8 ovarian
[35] = system: HT29 colon
[36] = system: IGROV1 ovarian
[37] = system: NCI-H23 lung
[38] = system: MALME-3M melanoma
[39] = system: SK-MEL-28 melanoma
[40] = system: UO-31 renal
[41] = system: DMS 273 small cell lung
[42] = system: LXFL 529 NSCLC
[43] = system: M14 melanoma
[44] = system: HCC-2998 colon
[45] = system: SNB-19 CNS
[46] = system: A498 renal
[47] = system: OVCAR-4 ovarian
[48] = system: HL-60(TB) leukemia
[49] = system: U251 CNS
[50] = system: DMS 114 small cell lung
[51] = system: HOP-18 NSCLC
[52] = system: HCT-15 colon
[53] = system: HOP-92 NSCLC
[54] = system: HCT-116 colon
[55] = system: KM20L2 colon
[56] = system: OVCAR-5 ovarian
[57] = system: ACHN renal

## O=C(C#Cc1ccccc1)Nc1ccccc1CC(c1c[nH]c2ccccc12)c1c[nH]c2ccccc12
[1]
  TGI: > 100 µM
[2]
  TGI: 22 µM
[3]
  TGI: 96.6 µM
[4]
  TGI: 16.8 µM
[5]
  TGI: 34.2 µM
[6]
  TGI: 26.5 µM
[7]
  TGI: 20 µM
[8]
  TGI: > 100 µM
[9]
  TGI: 14 µM
[10]
  TGI: > 100 µM
[11]
  TGI: > 100 µM
[12]
  TGI: 31.8 µM
[13]
  TGI: 29.2 µM
[14]
  TGI: 30.1 µM
[15]
  TGI: 47.8 µM
[16]
  TGI: 36.5 µM
[17]
  TGI: 97.6 µM
[18]
  TGI: 44.2 µM
[19]
  TGI: 35.2 µM
[20]
  TGI: > 100 µM
[21]
  TGI: > 100 µM
[22]
  TGI: 43.6 µM
[23]
  TGI: 30 µM
[24]
  TGI: 51.9 µM
[25]
  TGI: 80 µM
[26]
  TGI: 86.1 µM
[27]
  TGI: 29.4 µM
[28]
  TGI: > 100 µM
[29]
  TGI: 74.6 µM
[30]
  TGI: 27.4 µM
[31]
  TGI: > 100 µM
[32]
  TGI: 70 µM
[33]
  TGI: 44.4 µM
[34]
  TGI: 39.7 µM
[35]
  TGI: 87.9 µM
[36]
  TGI: 98.8 µM
[37]
  TGI: 37.1 µM
[38]
  TGI: > 100 µM
[39]
  TGI: 32.4 µM
[40]
  TGI: > 100 µM
[41]
  TGI: 38.8 µM
[42]
  TGI: 28.4 µM
[43]
  TGI: 39.6 µM
[44]
  TGI: 50.6 µM
[45]
  TGI: > 100 µM

## O/N=C1/C(=C/c2ccc(Br)cc2)CCCC1C(NO)c1ccc(Br)cc1 (stereo not drawn)
[1]
  TGI: 33.3 µM
[2]
  TGI: 27.8 µM
[3]
  TGI: 33 µM
[4]
  TGI: 48.4 µM
[5]
  TGI: 31.7 µM
[6]
  TGI: 32.9 µM
[7]
  TGI: 51.2 µM
[8]
  TGI: 44.8 µM
[9]
  TGI: 31.1 µM
[10]
  TGI: 34.1 µM
[46]
  TGI: 23 µM
[47]
  TGI: 23.3 µM
[13]
  TGI: 31.1 µM
[48]
  TGI: > 100 µM
[14]
  TGI: 44.8 µM
[15]
  TGI: 32.1 µM
[49]
  TGI: 45.3 µM
[16]
  TGI: > 100 µM
[17]
  TGI: 32.6 µM
[50]
  TGI: 29.6 µM
[51]
  TGI: 33.8 µM
[18]
  TGI: 28.7 µM
[20]
  TGI: 32.1 µM
[52]
  TGI: 31.8 µM
[22]
  TGI: 35.5 µM
[53]
  TGI: 26.5 µM
[23]
  TGI: 24.9 µM
[24]
  TGI: 34 µM
[25]
  TGI: 30.4 µM
[27]
  TGI: 32.9 µM
[29]
  TGI: 30.8 µM
[30]
  TGI: 38.6 µM
[31]
  TGI: 36.4 µM
[54]
  TGI: 31.3 µM
[33]
  TGI: 38.3 µM
[34]
  TGI: 31.5 µM
[35]
  TGI: 35.4 µM
[55]
  TGI: 32.5 µM
[36]
  TGI: 32.4 µM
[38]
  TGI: 31.9 µM
[39]
  TGI: 34.4 µM
[40]
  TGI: 31.3 µM
[56]
  TGI: 24.6 µM
[41]
  TGI: 25.8 µM
[42]
  TGI: 27.9 µM
[57]
  TGI: 31.2 µM
[43]
  TGI: 29.9 µM
[45]
  TGI: 32 µM
